Test results taken from patent US7638496B2 (priority 2000, dated 2009).

How the values were obtained:
PTV (Adames strain) = test: PTV infection in C57BL/6 mice in vivo; conditions: 24 h post infection by PTV
Protocol: For 24 h post infection by PTV in vivo the minimum effective s.c. dose of 32 mg/kg for ribavirin and for viramidine was 96 mg/kg given s.c. b.i.d for 5 days. For 24 h post infection by PTV in vivo the minimum effective p.o. dose of 20 mg/kg for ribavirin and for viramidine was 40 mg/kg given p.o. b.i.d for 5 days.

IMP dehydrogenease = conditions: cited from earlier work

In the case of `NC(=O)c1ncn([C@@H]2O[C@H](CO)[C@@H](O)[C@H]2O)n1` [Ribavirin, 1-β-D-ribofuranosyl-1,2,4-triazole-3-carboxamide], the “minimum effective p.o. dose” value (PTV (Adames strain); p.o. b.i.d for 5 days) is listed as 20 mg/kg, the “minimum effective s.c. dose” value (PTV (Adames strain); s.c. b.i.d for 5 days) is listed as 32 mg/kg and the IMP dehydrogenase inhibition (IMP dehydrogenease) is listed as “inhibitor of IMP dehydrogenease”.
